From article PMC7673237 (ACS infectious diseases, 2020) come the findings set out here.

≈ marks a conversion by molar mass, not a printed value. Like-named read-outs stand apart in the source and are kept apart here.

The target of one data set is OXA-48 (Klebsiella pneumoniae, UniProt Q6XEC0). Briefly: Inhibition of OXA-48 mediated nitrocefin hydrolysis. Format: biochemical. Conditions: purified OXA-48, nitrocefin substrate, Morrison equation.
The target in another data set is OXA-163 (Klebsiella pneumoniae, UniProt Q6XEC0, DEL214-217/S212D). Briefly: Inhibition assay with nitrocefin as reporter, OXA-163. Format: biochemical. The conditions noted are these: read-out: CDD-97 Ki; OXA-163, nitrocefin substrate.
Another data set concerns the target OXA-58 (Acinetobacter baumannii, UniProt Q2TR58). The data set is described as follows: Inhibition assay with nitrocefin as reporter, OXA-58. Format: biochemical.
The target of the next data set is OXA-24 (Acinetobacter baumannii, UniProt Q8RLA6). Briefly: Inhibition assay with nitrocefin as reporter, OXA-24. Format: biochemical.
The next data set concerns E. coli MG1655OXA-48. The data set is described as follows: Bacterial susceptibility. Conditions: for MIC: Escherichia coli. Format: cell-based.
The target of a further data set is OXA-10 (Pseudomonas aeruginosa, UniProt P14489). Briefly: Inhibition assay with nitrocefin as reporter, OXA-10. Format: biochemical.
A further data set deals with E. coli MG1655. The data set is described as follows: Accumulation assay in E. coli. Type of data set: cell-based. Conditions: wild-type E. coli MG1655, 10 minutes at 37°C, LC-MS/MS.

In general, Ki refers to the dissociation constant of the complex between target and ligand, obtained from inhibition or displacement. On to `CCOc1ccccc1N1CCN(c2ncnc(N3CCC(C(=O)O)CC3)n2)CC1` [CDD-97], for which the Ki on OXA-48 was found to be 0.53 ± 0.08 µM; at OXA-163 it was 0.44 ± 0.02 µM; at OXA-58 (read-out: CDD-97 Ki, OXA-58, nitrocefin substrate), 45 ± 0.8 µM; on OXA-24 (read-out: CDD-97 Ki, OXA-24, nitrocefin substrate) it was 14 ± 1 µM; on OXA-10 (read-out: CDD-97 Ki, OXA-10, nitrocefin substrate) it was 61 ± 27 µM. For the same compound, the “Ki less potent than observed for OXA-48” value on OXA-58 (OXA-58 vs OXA-48) and at OXA-10 (OXA-10 vs OXA-48) was “about 100 fold” in each case. Moreover, the “decrease in potency compared to OXA-48” value at OXA-24 (OXA-24 vs OXA-48) was 26 fold. Also, the “AMP MIC” value with E. coli MG1655OXA-48 (with CDD-97 4 μg/mL) was 1024 µg/mL; with E. coli MG1655OXA-48 (with CDD-97 8 μg/mL) it was 512 µg/mL; in the data set on E. coli MG1655OXA-48 (with CDD-97 16 μg/mL), 512 µg/mL; in the data set with E. coli MG1655OXA-48 (with CDD-97 32 μg/mL), 512 µg/mL; with E. coli MG1655OXA-48 (with CDD-97 64 μg/mL), 512 µg/mL. Also, the “IMP MIC” value stood at 0.625 µg/mL in the data set on E. coli MG1655OXA-48 (with CDD-97 4 μg/mL); 0.3125 µg/mL in the data set with E. coli MG1655OXA-48 (with CDD-97 8 μg/mL); 0.3125 µg/mL with E. coli MG1655OXA-48 (with CDD-97 16 μg/mL); 0.3125 µg/mL in the data set with E. coli MG1655OXA-48 (with CDD-97 32 μg/mL); 0.3125 µg/mL in the data set on E. coli MG1655OXA-48 (with CDD-97 64 μg/mL). Moreover, the “level in cells lower than the positive control tetracycline” value in the data set with E. coli MG1655 was found to be 20 fold.
With `NC(=O)[C@@H]1CC[C@@H]2CN1C(=O)N2OS(=O)(=O)O` [Avibactam, avibactam], the MIC in the data set on E. coli MG1655OXA-48 (MG1655OXA48, read-out: AMP MIC, with avibactam 0.125 μg/mL) turned out to be 256 µg/mL; in the data set with E. coli MG1655OXA-48 (MG1655OXA48, read-out: AMP MIC, with avibactam 0.25 μg/mL), 128 µg/mL; in the data set on E. coli MG1655OXA-48 (MG1655OXA48, read-out: AMP MIC, with avibactam 0.5 μg/mL) it was 64 µg/mL; in the data set on E. coli MG1655OXA-48 (MG1655OXA48, read-out: AMP MIC, with avibactam 1 μg/mL), 32 µg/mL; with E. coli MG1655OXA-48 (MG1655OXA48, read-out: AMP MIC, with avibactam 2 μg/mL) it was 16 µg/mL; with E. coli MG1655OXA-48 (MG1655OXA48, read-out: AMP MIC, with avibactam 4 μg/mL), 4 µg/mL. Moreover, the MIC in the data set on E. coli MG1655OXA-48 (MG1655OXA48, read-out: IMP MIC, with avibactam 0.125 μg/mL) came to 0.312 µg/mL; in the data set with E. coli MG1655OXA-48 (MG1655OXA48, read-out: IMP MIC, with avibactam 0.25 μg/mL) it was 0.312 µg/mL; in the data set with E. coli MG1655OXA-48 (MG1655OXA48, read-out: IMP MIC, with avibactam 0.5 μg/mL), 0.156 µg/mL; in the data set on E. coli MG1655OXA-48 (MG1655OXA48, read-out: IMP MIC, with avibactam 1 μg/mL), 0.156 µg/mL; with E. coli MG1655OXA-48 (MG1655OXA48, read-out: IMP MIC, with avibactam 2 μg/mL) it was 0.156 µg/mL; with E. coli MG1655OXA-48 (MG1655OXA48, read-out: IMP MIC, with avibactam 4 μg/mL), 0.0781 µg/mL. For the same compound, in the data set on E. coli MG1655OXA-48 (inhibitor up to 4 μg/ml), the “change of both the AMP and IMP MICs with increasing inhibitor concentration” value was “dose-dependent decrease”.
As for `CC1(C)S[C@@H]2[C@H](NC(=O)[C@H](N)c3ccccc3)C(=O)N2[C@H]1C(=O)O` [AMP, ampicillin], the MIC with E. coli MG1655OXA-48 (MG1655OXA48, read-out: AMP MIC, no inhibitor (0 μg/mL)) was determined as 512 µg/mL (≈ 1470 µM).
Turning to `C[C@@H](O)[C@H]1C(=O)N2C(C(=O)O)=C(SCCN=CN)C[C@H]12` [IMP, imipenem], in the data set with E. coli MG1655OXA-48 (MG1655OXA48, read-out: IMP MIC, no inhibitor (0 μg/mL)), the MIC amounted to 0.625 µg/mL (≈ 2.09 µM).
